This is an account of results in PMC3436892, “Novel African Trypanocidal Agents: Membrane Rigidifying Peptides” (PLoS ONE, 2012).

Data set [1] is described as follows: Parallax analysis of tryptophan penetration depth. To be noted: for F1/F2 ± S.D.: ratio of tryptophan fluorescence intensity (357 nm) with shallow (6,7-dibromo-PC, F1) and deep (9,10-dibromo-PC, F2) quencher, 200 µg/ml liposomes, at least triplicate. Type of data set: physicochemical. As to the method:
The hydrocarbon penetration depth of tryptophans spaced throughout synthetic peptides corresponding to SHP-1 or SHP-3 (Table S1) was determined by parallax analysis with brominated phosphatidylcholine liposomes. Large unilamellar liposomes composed of egg phosphatidylcholine and 10 mol % 1-palmitoyl-2-(6,7-dibromo)stearoyl-sn-glycero-3-phosphocholine (shallow quencher) or 1-palmitoyl-2-(9,10-dibromo)stearoyl-sn-glycero-3-phosphocholine (deep quencher) were constructed by hydration of a thin dry lipid film with phosphate buffered saline. Resulting multilamellar liposomes were made unilameller via extrusion through polycarbonate filters with 0.1 µm pores. Peptides (500 nM) were incubated with 200 µg/ml liposomes in phosphate buffered saline at 37°C for 22 h. Tryptophan fluorescence at 357 nm was measured from at least triplicate trials in the PerkinElmer Life Sciences LS55 spectrofluorometer and an excitation wavelength of 280 nm for SHP-1 and 290 nm for SHP-2, 10 nm excitation and 9 nm emission slit widths. The distance of tryptophans from the bilayer center (ZCF) is calculated from the equation [12]: [drawing 1] Where LC1 is the distance from the center of the bilayer to the shallow quencher, in this case 10.8 Å for 6,7-dibromo-PC [25], F1 is the intensity of tryptophan in the presence of the shallow quencher and F2 is the tryptophan intensity in the presence of the deep quencher, C is the mole fraction of quencher divided by the area of individual phospholipid (70 Å^2), and L21 is the difference in the depth of the two quenchers (2.7 Å). The hydrocarbon insertion depth of tryptophans is then given by one half the bilayer thickness, 29 Å [25], minus ZCF.

Another data set has as its system Live BSF T. b. brucei. In words: Trypanosome motility scoring by DIC microscopy. The data set is classed as cell-based, Trypanosoma brucei brucei. As to the method:
All images and videos were acquired with an Axio Observer Z1 equipped with an AxioCam MRm controlled by AxioVision 4.6 software. Videos were acquired with live cells at a density of 1×10^7 cells/mL in HMI 9 media with 10 % fetal bovine serum, incubated with 40 µM SHP at 37°C. Trypanosomes were visualized at magnification 63 × and videos were recorded with 100-ms acquisition times. The motility of BSF trypanosomes was scored directly or from video playback. Trypanosome motility was classified as normal, hyperactive or constricted as described previously. An example of a trypanosome scored as normal is shown in Movie S1. […] Data in figure 2D is shown as the average of at least duplicate trials with standard deviations.

The test system of data set [2] is BSF T. b. brucei. In words: 2 h killing assay, BSF T. b. brucei. The settings on record: light microscopy (Fig. 1d, Figure S2a). Type of data set: cell-based, Trypanosoma brucei brucei.
In data set [3] the test system is BSF T. b. brucei. The data set can be described thus: Flow cytometry peptide binding. The data set is classed as cell-based, Trypanosoma brucei brucei. To be noted: 8 µM FITC-labeled peptide, 3×10^6 cells/ml, HMI 9 plus 10 % fetal bovine serum, 25 °C, 50,000 cells counted immediately, flow cytometry (Figure S1). The method, then: SHP binding to BSF T. b. brucei. FITC-labeled SHP-1 (blue ? ) and SHP-3 (green ? ) were assayed for binding to BSF T. b. brucei via flow cytometry (no peptide, red ? ) . Trypanosomes were adjusted to 3 × 10^6 cells/ml in HMI 9 media with 10 % fetal bovine serum, 8 µM FITC-SHP-1 or FITC-SHP-3 was added and 50,000 cells were immediately counted.
Flow Cytometry – Peptide binding to BSF T. b. brucei was monitored by flow cytometry as described previously. Binding assays were performed with 3 × 10^6 cells/ml in HMI 9 plus 10 % fetal bovine serum at 25 °C. FITC-labeled SHP-1 or SHP-3 was added to a final concentration of 8 µM and 50,000 cells were immediately counted on a CyAn ADP flow cytometer (Dako). Data were analyzed with FlowJo software (TreeStar Inc.).
(In flow cytometry, cells or beads pass a laser one at a time.)

A short description of data set [4]: Calcein release (membrane interaction) assay. The data set is classed as physicochemical. The settings on record: unilamellar egg phosphatidylcholine liposomes with 30 mM calcein, PBS, 0.2-4 µM peptide, fluorescence 484/513 nm (Figure S2b, c). As to the method: Trypanosome killing and membrane interaction with SHP tryptophan variants. […] (b) The ability of SHP-1 tryptophan variants, 1 µM SHP-1ΔW1 (orange ? ), 1 µM SHP-1ΔW8 (green ? ), 0.2 µM SHP-1 (blue ? ) and 0.2 µM SHP-1ΔW18 (red ? ), and (c) SHP-3 tryptophan variants, 1 µM SHP-3ΔW1 (orange ? ), 1 µM SHP-3 (blue ? ), 1 µM SHP-3ΔW13 (red ? ) and 4 µM SHP-3ΔW20 (green ? ), to interact with lipid bilayers was determined by monitoring the release of entrapped calcein from unilamellar egg phosphatidylcholine liposomes.
Calcein Release Assays – Membrane permeabilization assays were conducted as described in detail previously. Unilamellar liposomes were constructed as described above but with 30 mM calcein in 10 mM Hepes as the hydration buffer. Untrapped dye was removed by gel filtration (Sephacryl S-300 HR, GE Healthcare). Liposomes were diluted 1:1000 into phosphate buffered saline, and calcein fluorescence was monitored at 513 nm when excited at 484 nm. The percent calcein release was calculated relative to the 100% fluorescence intensity, achieved by the addition of 0.01% Triton X-100.

[5] abbreviates: 500 nM peptide, PBS, 37°C, 22 h.
Setting [6] is: 40 µM SHP, 37°C, 1×10^7 cells/mL, HMI 9 with 10 % fetal bovine serum, DIC microscopy, at least duplicate (Fig. 2d).

Consider “FHQIGAALLYFYGIILNSIW [SHP-3∆W20, SHP-3 tryptophan variant, Trp at position 20]”, for which the “F1/F2 ± S.D.” value in data set [1] (setting [5]) is recorded as 1.1620 ± 0.3194.
The same measure, in the same setting: for “FHQIGAALLYFYWIILNSIY [SHP-3∆W13, SHP-3 tryptophan variant, Trp at position 13]” the value was 0.9912 ± 0.0787.
Take “FHQIWAALLYFYGIILNSIY [SHP-3, non-trypanocidal small hydrophobic peptide derived from an apolipoprotein]”: the “insertion depth of native tryptophan, position 5” value in data set [1] (500 nM peptide, 200 µg/ml brominated egg PC liposomes, PBS, 37°C, 22 h) is reported as “approximately 1.6 Å”. Moreover, in data set [1] (Trp-substituted variant W1, suggests it does not intercalate into the hydrocarbon region), the “quenching of N-terminal tryptophan (position 1)” value was “inefficiently quenched”. Also, the “insertion depth of tryptophan at position 13” value in data set [1] (Trp-substituted variant W13, 500 nM peptide, 200 µg/ml brominated egg PC liposomes, PBS, 37°C, 22 h) is given as “approximately 4.7 Å”. Also, in data set [1] (Trp-substituted variant W20, 500 nM peptide, 200 µg/ml brominated egg PC liposomes, PBS, 37°C, 22 h), the “insertion depth of C-terminal tryptophan (position 20)” value is recorded as “approximately 11.2 Å”. Further, in data set [1] (setting [5]), the “F1/F2 ± S.D.” value is given as 0.9202 ± 0.1260. Further, in the data set with Live BSF T. b. brucei (setting [6]), the “constriction of motility following hyperactivation” value is “subsequent constriction does not occur” and the hyperactivation of motility result is “some hyperactivation”. In the data set with Live BSF T. b. brucei (40 µM peptide, DIC video microscopy, representative cells (Movies S2, S3)), the “motility approximately 30 sec after addition” value is on record as “hyperactivated motility”. Further, the “trypanocidal activity against BSF T. b. brucei” value with BSF T. b. brucei [2] is given as “no trypanocidal activity was detected”. The “binding to BSF T. brucei” value in the data set on BSF T. b. brucei [3] is listed as “binding to BSF T. brucei”. Moreover, the “membrane interaction (release of entrapped calcein from liposomes)” value in data set [4] is on record as “exhibit membrane interaction”.
Turning to “SDLGAVISLLLGGRQLFW [SHP-1∆W18, SHP-1 tryptophan variant, Trp at position 18]”, the “F1/F2 ± S.D.” value in data set [1] (setting [5]) is on record as 0.9285 ± 0.1557.
Regarding “SDLGAVIWLLLGGRQLFA [SHP-1∆W8, SHP-1 tryptophan variant, Trp at position 8]”, the “F1/F2 ± S.D.” value in data set [1] (setting [5]) is 0.9767 ± 0.0717.
Same read-out and setting: in the case of “WDLGAVISLLLGGRQLFA [SHP-1∆W1, SHP-1 tryptophan variant, Trp at position 1]” it was 0.8897 ± 0.1112.
